For data set [1], the system named is Lipopolysaccharide (LPS). Description: Binding affinity to LPS (unknown origin) assessed as reduction in bacterial mortality at 2 times MIC preincubated with LPS for 1 hr followed by bacteria addition and measured after 18 hrs by microplate reader analysis. The class given is subcellular. The settings on record: time 19.0 hrs.
Data set [2] relates to Staphylococcus aureus. Description: Antibiofilm activity against Staphylococcus aureus ATCC 25923 assessed as inhibition of biofilm formation at 0.5 to 4 times MIC measured after 24 hrs by crystal violet staining based analysis. The class given is functional, organism-based.
The subject of data set [3] is Cell membrane. Description: Induction of cell membrane damage in Escherichia coli assessed as PI uptake at 2 times MIC measured after 0.5 hrs by PI dye based flow cytometry analysis (reference value: 18.1%). The data set is classed as cell membranes.
Data set [4] can be described thus: Acute toxicity in male BALB/c mouse assessed as loss of appetite at 80 to 130 mg/kg, ip administered as single dose and measured after 3 days. The settings on record: in vivo, 72 h, dose 80-130 mg/kg, time 3 day. The class given is organism-based.
Data set [5] is described as follows: Therapeutic index, ratio of MHC10 for hemolytic activity in mouse erythrocytes preincubated with 10% mouse serum for 6 hrs to MIC for Staphylococcus aureus ATCC 25923 preincubated with 10% mouse serum for 6 hrs. The class given is toxicity, cell-based. The settings on record: mouse erythrocytes, read-out: TI.
The test system of data set [6] is Cell membrane. In words: Disruption of cell membrane morphology in Staphylococcus aureus assessed as breakage of cell membrane at 2 times MIC measured after 0.5 to 2 hrs by SEM analysis. The class given is cell membranes. As to conditions: time 0.5-2 hrs.
In data set [7] the test system is Staphylococcus aureus. Description: Synergistic antibacterial activity against Staphylococcus aureus ATCC 25923 assessed as fractional inhibitory concentration index at 0.25 to 4 times MIC incubated for 20 hrs in presence of polymyxin B by checkerboard assay. The data set is classed as functional.
Data set [8] relates to Cell membrane. Description: Disruption of cell membrane morphology in Staphylococcus aureus assessed as partial creasing in bacterial membrane at 2 times MIC measured after 0.5 to 2 hrs by SEM analysis. The class given is cell membranes. As to conditions: time 0.5-2 hrs.
The test system of data set [9] is Escherichia coli. In words: Bactericidal activity against Escherichia coli ATCC 25922 assessed as elimination of bacteria at 2 times MIC measured within 2 hrs by time kill assay. The data set is classed as functional, organism-based.
Data set [10] deals with Cell membrane. In words: Induction of outer membrane permeabilization in Escherichia coli assessed as increase in fluorescence intensity at 0.5 to 4 times MIC measured within 1 min by NPN dye based assay.
The test system of data set [11] is Cell membrane. Description: Induction of outer membrane permeabilization in Escherichia coli assessed as increase in fluorescence intensity at 0.5 to 4 times MIC measured for 12 mins by NPN dye based assay.
The test system of data set [12] is Erythrocyte. Description: Hemolytic activity in mouse erythrocytes assessed as 10% hemolysis incubated for 1 hr by absorbance based analysis. The data set is classed as toxicity, cell-based.
Data set [13] has as its system Escherichia coli. In words: Resistant development in Escherichia coli assessed as increase in MIC at sub-MIC in presence of rifampicin measured after 20 passages. The data set is classed as functional, organism-based.
The test system of data set [14] is Cell membrane. In words: Induction of cell membrane damage in Staphylococcus aureus assessed as PI uptake at 2 times MIC measured after 0.5 hrs by PI dye based flow cytometry analysis (reference value: 24.2%). The class given is cell membranes. A general note: Flow cytometry measures light scatter and fluorescence of single cells or particles in a stream.
Data set [15] concerns Staphylococcus aureus. In words: Bactericidal activity against Staphylococcus aureus ATCC 25923 assessed as elimination of bacteria at 2 times MIC measured after 1.5 hrs by time kill assay. The class given is functional.
Data set [16] in a line: Acute toxicity in male BALB/c mouse assessed as lusterless fur at 80 to 130 mg/kg, ip administered as single dose and measured after 3 days. The data set is classed as organism-based. The settings on record: in vivo, 72 h, dose 80-130 mg/kg, time 3 day.
Data set [17] can be described thus: Cytotoxicity against HEK293T cells assessed as cell death measured after 1 hr by resazurin dye based analysis. The data set is classed as toxicity, HEK-293T. The settings on record: human, HEK293T cells. A general note: Resazurin is reduced to fluorescent resorufin, in cell work by metabolically active cells.
For data set [18], the system named is Escherichia coli. In words: Synergistic antibacterial activity against Escherichia coli ATCC 25922 assessed as fractional inhibitory concentration index at 0.25 to 4 times MIC incubated for 20 hrs in presence of kanamycin by checkerboard assay. The data set is classed as functional.
Data set [19] in a line: Acute toxicity in ip dosed male BALB/c mouse administered as single dose. The data set is classed as organism-based. The settings on record: male, BALB/c, in vivo, read-out: LD50.
Data set [20] deals with Staphylococcus aureus. In words: Drug resistance, ratio of MIC for Staphylococcus aureus after 20 passages to MIC for Staphylococcus aureus after initial exposure. The data set is classed as functional.
Data set [21] can be described thus: Therapeutic index, ratio of MHC10 for hemolytic activity in mouse erythrocytes preincubated with 10% mouse serum for 1 hr to MIC for Staphylococcus aureus ATCC 25923 preincubated with 10% mouse serum for 1 hr. The class given is toxicity, cell-based. The settings on record: mouse erythrocytes, read-out: TI.
The subject of data set [22] is Cell membrane. In words: Disruption of cell membrane morphology in Staphylococcus aureus assessed as loss of intact cell morphology at 2 times MIC measured after 0.5 to 2 hrs by SEM analysis. As to conditions: time 0.5-2 hrs. The data set is classed as cell membranes.
The test system of data set [23] is Escherichia coli. Description: […] activity against Escherichia coli ATCC 25922 infected in male BALB/c pulmonary infection model assessed as reduction in liver hemorrhage at 5 to 10 mg/kg, ip administered at 3 and 12 hrs post infection and measured 24 hrs post infection by H and E staining based analysis. The class given is functional, organism-based. The settings on record: dose 5-10 mg/kg, time 12-21 hrs.

In data set [24] the test system is Cell membrane. In words: Induction of inner membrane permeabilization in Escherichia coli ML-35 ATCC 43837 at 0.5 to 4 times MIC measured every 5 mins over 135 mins by ONPG reagent based microplate reader analysis.
The subject of data set [25] is Cell membrane. Description: Disruption of cell membrane morphology in Escherichia coli assessed as breakage of cell membrane at 2 times MIC measured after 0.5 to 2 hrs by SEM analysis. The data set is classed as cell membranes. The settings on record: time 0.5-2 hrs.
Data set [26] has as its system Escherichia coli. Description: Antibiofilm activity against Escherichia coli ATCC 25922 assessed as inhibition of biofilm formation at 0.5 to 4 times MIC measured after 24 hrs by crystal violet staining based analysis. The data set is classed as functional, organism-based.
Data set [27] concerns Cell membrane. Description: Disruption of cell membrane morphology in Escherichia coli assessed as partial creasing in bacterial membrane at 2 times MIC measured after 0.5 to 2 hrs by SEM analysis. The settings on record: time 0.5-2 hrs. The data set is classed as cell membranes.
Data set [28] relates to Escherichia coli. In words: Drug resistance, ratio of MIC for Escherichia coli after 20 passages to MIC for Escherichia coli after initial exposure. The class given is functional.
Data set [29] in a line: Therapeutic index, ratio of MHC10 for hemolytic activity in mouse erythrocytes preincubated with 10% mouse serum for 6 hrs to MIC for Escherichia coli ATCC 25922 preincubated with 10% mouse serum for 6 hrs. The data set is classed as toxicity, cell-based. The settings on record: mouse erythrocytes, read-out: TI.
Data set [30] deals with Escherichia coli. In words: Synergistic antibacterial activity against Escherichia coli ATCC 25922 assessed as fractional inhibitory concentration index at 0.25 to 4 times MIC incubated for 20 hrs in presence of polymyxin B by checkerboard assay. The data set is classed as functional.
Data set [31] relates to Staphylococcus aureus. In words: Antibacterial activity against Staphylococcus aureus ATCC 25923 assessed as inhibition of bacterial growth incubated for 20 hrs in presence of NaCl by broth microdilution method (reference value: 16 microM). The class given is functional. Background: In broth dilution the organism is exposed to a series of concentrations in liquid medium.

Data set [32] has as its system Staphylococcus aureus. In words: Additive antibacterial activity against gentamicin resistant Staphylococcus aureus ATCC 25923 assessed as fractional inhibitory concentration index at 0.25 to 4 times MIC incubated for 20 hrs in presence of gentamicin by checkerboard assay. The class given is functional.
For data set [33], the system named is Staphylococcus aureus. Description: Antibacterial activity against Staphylococcus aureus ATCC 25923 assessed as inhibition of bacterial growth incubated for 20 hrs in presence of KCl by broth microdilution method (reference value: 16 microM). The data set is classed as functional.
Data set [34] has as its system Escherichia coli. Description: […] activity against Escherichia coli ATCC 25922 infected in ip dosed male BALB/c pulmonary infection model assessed as reduction in bacterial colonies administered at 3 and 12 hrs post infection and measured 24 hrs post infection. The data set is classed as functional, organism-based. As to conditions: dose 5-10 mg/kg, time 12-21 hrs.

For data set [35], the system named is Staphylococcus aureus. In words: Antibacterial activity against Staphylococcus aureus ATCC 25923 assessed as inhibition of bacterial growth incubated for 20 hrs in presence of MgCl2 by broth microdilution method (reference value: 16 microM). The class given is functional.

The source made the active and inactive calls. The rule behind the calls is not given here. Where a SMILES comes first, the peptide text is derived from it. Side-chain parts run from the residue outwards.

One may read the CC50 as the concentration that lowers cell viability or growth by half. By LD50 is commonly meant the dose expected to kill half of the subjects tested. Usually MIC stands for the lowest concentration found to suppress growth.

Turning to `N=C(N)NCCC[C@H](NC(=O)[C@H](CCCNC(=N)N)NC(=O)[C@H](CCCNC(=N)N)NC(=O)[C@@H](N)CCCNC(=N)N)C(=O)N[C@@H](CCCCN)C(=O)N[C@@H](Cc1c[nH]c2ccccc12)C(=O)N[C@@H](Cc1c[nH]c2ccccc12)C(=O)N[C@@H](Cc1c[nH]c2ccccc12)C(=O)N[C@@H](Cc1c[nH]c2ccccc12)C(N)=O`, the result in data set [1], in data set [6], in data set [8], in [9], in data set [10] and in data set [22] was Active. Further, the result in [23], in [25] and in [27] was Active. Moreover, the Activity result in data set [2] is “Dose-Dependent Effect”; in [3], > 80%; in data set [4] it was “Toxic”; in [11], “Dose-Dependent Effect”; in data set [14] it was > 90%; in data set [15], 100%. Moreover, the Activity entry in [16] is “Toxic”; in data set [24] it was “Dose-Dependent Effect”; in data set [26], “Dose-Dependent Effect”. Besides, the selectivity ratio in [5] worked out at 0.5; in data set [21], 0.5; in data set [29], 0.25. Moreover, the “fractional inhibitory concentration index (FICI)” value in data set [7] turned out to be 0.375; in data set [18], 0.5; in data set [30] it was 0.5. In [12], the MHC10 was > 256 µM. Besides, the outcome in [13] was inactive. The CC50 at 1 h in data set [17] was > 128 µM. Also, the LD50 in [19] was 105 mg/kg. Besides, the Ratio result in [20] and in data set [28] was “<=2” each time.
For `N=C(N)NCCC[C@H](NC(=O)[C@@H](N)CCCNC(=N)N)C(=O)NCCCC[C@H](NC(=O)[C@H](CCCNC(=N)N)NC(=O)[C@@H](N)CCCNC(=N)N)C(=O)N[C@@H](Cc1c[nH]c2ccccc12)C(=O)N[C@@H](Cc1c[nH]c2ccccc12)C(=O)N[C@@H](Cc1c[nH]c2ccccc12)C(=O)N[C@@H](Cc1c[nH]c2ccccc12)C(N)=O` (H-RRK([Arg-Arg])WWWW-NH2), the outcome in [1], in data set [6], in data set [8], in data set [9], in [10] and in data set [22] was Active. Further, the result in [23], in data set [25] and in data set [27] was Active. The MIC is 16 µM in [31], 8 µM in [33] and 8 µM in [35]. In addition, the Activity result in data set [2] is “Dose-Dependent Effect”; in data set [3], > 80%; in data set [4], “Toxic”; in data set [11], “Dose-Dependent Effect”; in data set [14], > 90%; in [15], 100%. For the same compound, the Activity entry is “Toxic” in data set [16], “Dose-Dependent Effect” in [34], “Dose-Dependent Effect” in [24] and “Dose-Dependent Effect” in data set [26]. Moreover, the selectivity ratio came to 1 in data set [5], 1 in [21] and 0.5 in data set [29]. In addition, the “fractional inhibitory concentration index (FICI)” value in data set [7] is 0.313; in data set [32], 0.563; in data set [30] it was 0.5. Further, the MHC10 in data set [12] was > 256 µM. For the same compound, the result in data set [13] was inactive. Besides, in data set [17], the CC50 at 1 h was > 128 µM. Moreover, the LD50 in data set [19] is 109 mg/kg. In addition, the Ratio result in data set [20] and in [28] was “<=2” in each case.
For POLYMYXIN B, the MIC in data set [31] was determined as 64 µM; in data set [33] it was 16 µM; in [35], 16 µM. Further, the fractional inhibitory concentration index (FICI) in data set [32] came out at 1; in data set [18], 0.5. Moreover, the Activity result in [34] was “Dose-Dependent Effect”.

These data come from ChEMBL document CHEMBL5500371, “Arginine and tryptophan-rich dendritic antimicrobial peptides that disrupt membranes for bacterial infection in vivo” (Eur J Med Chem, 2024).
